# Measurements from patent publication US10201587B2, “Methods of inhibiting and treating biofilms using glycopeptide antibiotics” (MELINTA THERAPEUTICS, INC., priority 2008, dated 2019).
# Where two headings read alike, the source gives them in different places.
# How the values were obtained:
# MRSA ATCC 33591 [1] = assay: Time-kill in nutrient-depleted CAMHB; type: cell-based, S. aureus; details: stationary-phase, 24-hour incubation, fCmax
# Protocol: (§1) Nutrient-depleted CAMHB from each respective strain was prepared by 3 rounds of inoculation of CAMHB with exponential-phase bacteria, incubation overnight at 37° C. with rotation (225 rpm) and centrifugation (8000×g for 30 minutes) to remove bacteria. After the final round of inoculation, growth and centrifugation, the pH of the nutrient-depleted CAMHB was adjusted to pH=7.0 and the spent medium was filter-sterilized using a […] membrane (Corning Incorporated, Corning, N.Y.).
# (§2) Nutrient-depleted CAMHB containing diluted antimicrobial agents was inoculated with stationary-phase bacteria from overnight cultures of the S. aureus strains at approximately 10^7 colony-forming units (CFU)/mL. Other experiments compared the killing of stationary- and exponential-phase S. aureus ATCC 29213 when inoculated into nutrient-depleted CAMHB containing the test agents. For assays involving daptomycin, nutrient-depleted CAMHB was supplemented with 50 μg/ml CaCl2 (8). All time-kill studies were performed in 96-well deep-well plates at 37° C. with rotation (225 rpm) in a total volume of 750 μL. Bacteria were enumerated by serial-dilution plating. Bacteriostatic and bactericidal activity of the antimicrobial agents were defined as a reduction in viable cell counts of <3 or ≥3 log at 24 hours relative to the starting inoculum, respectively (33). Experiments were repeated at least three times and produced similar results; results from one experiment are presented.
# VRSA VRS5 [2] = assay: Time-kill in nutrient-depleted CAMHB; type: cell-based, S. aureus; details: stationary-phase, 24-hour incubation, fCmax
# Protocol: as §1, §2
# MRSA ATCC 33591 [3] = assay: MBEC system in vitro biofilm (MIC and MBEC); type: cell-based, S. aureus; details: for MBEC: 24-hour biofilm, 24 hours of exposure; for MIC: Staphylococcus aureus
# Protocol: (§3) The commercially-available MBEC™ system (Innovotech; Edmonton, AB, Canada) was used following the manufacturer's protocol (17) to establish in vitro biofilms of S. aureus and to determine the minimal biofilm eradication concentration (MBEC) of oritavancin and comparator antimicrobial agents. The MBEC represents the concentration of antimicrobial agent required to sterilize the biofilm after 24 hours of exposure. The MBEC™ system also allows for the determination of the minimal inhibitory concentration (MIC) of the test agent against planktonic cells under the conditions of the biofilm assay.
# (§4) 150 μL of bacterial inocula at 10^7 CFU/mL in tryptic soy broth was aliquoted into each well of an MBEC plate. Biofilms were established for 24 hours in a rotary incubator at 37° C. and 150 rpm. For experiments involving 72-hour biofilms, peg lids were transferred each day to 96-well plates containing 150 μL/well of fresh tryptic soy broth and incubated another 24 hours. Peg lids with established biofilms were washed once in sterile saline (200 μL/well) and then placed in plates containing antimicrobial agents diluted in CAMHB (200 μL/well). Antimicrobial agents were serially diluted in CAMHB in 96-well plates and peg lids were exposed for 24 hours or for the indicated times. Following antimicrobial challenge, peg lids were washed once in sterile saline then placed in recovery plates containing CAMHB (200 μL/well). The recovery plates were sonicated for 5 minutes in an ultrasonic sonicating bath (VWR Aquasonic model 550D) at the maximum setting then incubated for 24 hours and the MBECs recorded. MBECs were determined from at least three independent experiments; results represent the ranges of MBECs obtained. To enumerate the biofilm colony forming units (CFUs) on individual control pegs, pegs were broken off the lid using sterile forceps placed in 1 ml sterile saline, sonicated for 5 min and vortexed for 1 min at the highest setting. Bacteria were then enumerated by serial-dilution plating.
# (§5) To prevent loss of oritavancin due to binding to vessel surfaces (3), the CLSI now recommends inclusion of 0.002% polysorbate-80 for oritavancin broth microdilution MIC determinations (9).
# MSSA ATCC 29213 [4] = assay: MBEC system in vitro biofilm (MIC and MBEC); type: cell-based, S. aureus; details: for MBEC: 24-hour biofilm, 24 hours of exposure; for MIC: Staphylococcus aureus
# Protocol: as §3, §4, §5
# VRSA VRS5 [5] = assay: MBEC system in vitro biofilm (MIC and MBEC); type: cell-based, S. aureus; details: for MBEC: 24-hour biofilm, 24 hours of exposure; for MIC: Staphylococcus aureus, VRSA
# Protocol: as §3, §4, §5
# MSSA ATCC 29213 [6] = assay: Time-kill in nutrient-depleted CAMHB; type: cell-based, S. aureus; details: 24 hour time point, estimated fCmax
# Protocol: as §1, §2
# S. aureus ATCC 29213 [7] = assay: Membrane depolarization, DiSC3(5) fluorescence; type: cell-based; details: 30 min
# Protocol: Bacteria were grown overnight in CAMHB and sub-cultured the following day in CAMHB to exponential phase (OD600≈0.25). Exponential- and stationary-phase cells were washed in membrane assay buffer with or without 5 mM glucose, respectively, and resuspended at an OD600=0.25. DiSC3(5) was added to a final concentration of 1.5 μM and the solution was incubated in the dark at ambient temperature for 30 minutes to allow loading of the fluorescent dye into cell membranes. After the loading period, cells were diluted 50-fold (OD600=0.005) in depolarization buffer with or without glucose for exponential- or stationary-phase cells, respectively. Assays were initiated by the addition of antimicrobial agents over a range of concentrations and were monitored in real time by fluorescence spectroscopy (λex=612, λem=665) for a period of 30 minutes. […] Experiments were repeated three times and produced similar results; results from one assay are presented.
# S. aureus ATCC 29213 [8] = assay: Membrane permeability, SYTO-9/propidium iodide fluorescence; type: cell-based; details: 30 min
# Protocol: For membrane permeability assays, bacteria were prepared identically as described above for the membrane depolarization assay with the exception that SYTO-9 and propidium iodide (Invitrogen Corporation) were added at 5 μM and 30 μM, respectively. Experiments were repeated three times and produced similar results; results from one assay are presented.
# S. aureus ATCC 29213 [9] = assay: Short duration (2 h) time-kill in membrane assay buffer; type: cell-based; details: for killing over short time course: fCmax
# Protocol: Short duration (2 h) time-kill studies were performed in membrane assay buffer (see below) to characterize the killing of S. aureus ATCC 29213 under conditions used in the membrane depolarization and permeability assays. Exponential- and stationary-phase S. aureus ATCC 29213 cells were diluted to an OD600=0.005 (approx 10^6 CFU/mL) in membrane assay buffer (10 mM HEPES-C1, pH 7.5, 50 μg/mL CaCl2) with or without 5 mM glucose, respectively. Experiments were initiated by the addition of antimicrobial agents at the indicated concentrations and bacteria were enumerated by serial-dilution plating.
# [10] = tested on: stationary-phase MRSA ATCC 43300; assay: Ultrastructure by transmission electron microscopy of thin sections; type: cell-based, S. aureus; details: 3 hours in nutrient-depleted CAMHB; 1 μg/mL oritavancin, 16 μg/mL vancomycin
# Protocol: Bacteria were fixed in 2.5% glutaraldehyde to cross-link proteins and help preserve morphological structure. Prior to embedding, the samples were treated with fresh 2.5% (vol/vol) glutaraldehyde in HEPES buffer (pH, 6.8) for 2 hours. The samples were then post-fixed in 2.0% (wt/vol) osmium tetroxide, followed by en bloc-staining with 2.0% (wt/vol) uranyl acetate, as a heavy-metal stain, to add contrast to the cells. The cells were then dehydrated through a series of ethanol washes then embedded in LR White resin. Once polymerized by curing, each culture sample was thin sectioned and stained by uranyl acetate and lead citrate so as to view the internal cellular constituents and the juxtaposition of cell envelope layers such as the plasma membrane and cell wall. Transmission electron microscopy was used to view the thin sections using a Philips CM10 under standard operating conditions at 100 kV.
# [11] = tested on: exponentially-growing S. aureus (MSSA, MRSA, VRSA); details: actively dividing cells; cited from earlier work
# [12] = cited from earlier work; for estimated fCmax in plasma: human, in vivo, 200 mg
# [13] = tested on: S. epidermidis ATCC 35984; assay: MBEC plate biofilm eradication, agents in combination; type: cell-based
# Text: The following strains were used for in vitro biofilm studies: vancomycin (VAN)-susceptible Enterococcus faecalis ATCC 29212 (VSE), VAN-resistant E. faecalis ATCC 51299 (VanB VRE), E. faecium ATCC 51559 (VanA VRE), S. epidermidis ATCC 12228 and the slime-producing strain S. epidermidis ATCC 35984. Biofilms were established in MBEC™ Physiology & Genetics Assay plates (Innovotech; Edmonton, Canada).
# [14] = oritavancin without polysorbate-80
# [15] = planktonic cells shed from 24-hour peg biofilms, oritavancin without polysorbate-80, read-out: MIC
MIC (MRSA ATCC 33591 [3]; [15]) [µg/mL],MIC (MSSA ATCC 29213 [4]; [15]) [µg/mL],MIC (VRSA VRS5 [5]; [15]) [µg/mL],Structure (SMILES),MBEC (MRSA ATCC 33591 [3]; [14]) [µg/mL],MBEC (MSSA ATCC 29213 [4]; [14]) [µg/mL],MBEC (VRSA VRS5 [5]; [14]) [µg/mL],dissipation of membrane potential (DiSC3(5) fluorescence) (S. aureus ATCC 29213 [7]; exponential-phase cells),dissipation of membrane potential (DiSC3(5) fluorescence) (S. aureus ATCC 29213 [7]; stationary-phase cells),membrane permeability (SYTO-9 fluorescence) (S. aureus ATCC 29213 [8]; exponential-phase cells),membrane permeability (SYTO-9 fluorescence) (S. aureus ATCC 29213 [8]; stationary-phase cells),killing over short time course (S. aureus ATCC 29213 [9]; exponential-phase cells),estimated fCmax in plasma [12] [µg/mL],further results
2 to 4,8,4 to 8,"CC(=O)NC[C@H]1CN(c2ccc(N3CCOCC3)c(F)c2)C(=O)O1 [Linezolid, linezolid]",>128,>128,>128,–,–,–,–,–,–,"effect on bacterial cell numbers (MRSA ATCC 33591 [1]): no effect; effect on bacterial cell numbers (VRSA VRS5 [2]): no effect; MIC (MSSA ATCC 29213 [4]; 72-hour biofilms, read-out: planktonic MIC): 8 to 16 µg/mL"
–,–,–,"CN[C@H](CC(C)C)C(=O)N[C@H]1C(=O)N[C@@H](CC(N)=O)C(=O)N[C@H]2C(=O)N[C@H]3C(=O)N[C@H](C(=O)N[C@H](C(=O)O)c4cc(O)cc(O)c4-c4cc3ccc4O)[C@H](O)c3ccc(c(Cl)c3)Oc3cc2cc(c3O[C@@H]2O[C@H](CO)[C@@H](O)[C@H](O)[C@H]2O[C@H]2C[C@](C)(N)[C@H](O)[C@H](C)O2)Oc2ccc(cc2Cl)[C@H]1O [Vancomycin, vancomycin]",≥128,>128,>128,no effect on membrane potential,no effect on membrane potential,no effect on fluorescence,no effect on fluorescence,did not effect any change,–,"less killing activity against stationary-phase cells compared to exponential-phase cells (MSSA ATCC 29213 [6]): approx 2.4 log; killing over short time course (S. aureus ATCC 29213 [9]; stationary-phase cells): did not effect any change; septal mid-line staining [10]: evident; MIC (MRSA ATCC 33591 [3]; 24 h): 1 to 2 µg/mL; MIC (MSSA ATCC 29213 [4]; 24 h): 1 µg/mL; MIC (MSSA ATCC 29213 [4]; 72 h, read-out: planktonic MIC): 2 to 16 µg/mL; MIC (VRSA VRS5 [5]; 24 h): > 128 µg/mL; time required to exert bactericidal activity [11]: 24 h; estimated free trough concentration in plasma ([12]; humans, standard dose (oritavancin 200 mg)): 4 µg/mL"
–,–,–,"CCCCCCCCCC(=O)N[C@@H](Cc1c[nH]c2ccccc12)C(=O)N[C@H](CC(N)=O)C(=O)N[C@@H](CC(=O)O)C(=O)N[C@@H]1C(=O)NCC(=O)N[C@@H](CCCN)C(=O)N[C@@H](CC(=O)O)C(=O)N[C@H](C)C(=O)N[C@@H](CC(=O)O)C(=O)NCC(=O)N[C@H](CO)C(=O)N[C@@H]([C@H](C)CC(=O)O)C(=O)N[C@@H](CC(=O)c2ccccc2N)C(=O)O[C@@H]1C [Daptomycin, daptomycin]",–,–,–,small effect,did not effect changes,loss of fluorescence,no effect,Rapid killing,4,"reduction in CFU (S. aureus ATCC 29213 [9]; stationary-phase cells, within the 2-hour time period, oritavancin at fCmax 800, daptomycin at fCmax): 0.7 log"
–,–,–,"COc1c(N2C[C@@H]3CCCN[C@@H]3C2)c(F)cc2c(=O)c(C(=O)O)cn(C3CC3)c12 [MOX, moxifloxacin]",–,–,–,–,–,–,–,–,–,MBEC in combination ([13]; combination of ORI and MOX required for sterilization): 4 mg/L
–,–,–,"CO[C@H]1/C=C/O[C@@]2(C)Oc3c(C)c(O)c4c(c3C2=O)C2=NC3(CCN(CC(C)C)CC3)NC2=C(NC(=O)/C(C)=C\C=C\[C@H](C)[C@H](O)[C@@H](C)[C@@H](O)[C@@H](C)[C@H](OC(C)=O)[C@@H]1C)C4=O [RFB, rifabutin]",–,–,–,–,–,–,–,–,–,MBEC in combination ([13]; combination of ORI and RFB required for sterilization): 0.125 mg/L
< 0.03,< 0.02,0.03 to 0.06,"CO[C@H]1/C=C/O[C@@]2(C)Oc3c(C)c(O)c4c(O)c(c(/C=N/N5CCN(C)CC5)c(O)c4c3C2=O)NC(=O)/C(C)=C\C=C\[C@H](C)[C@H](O)[C@@H](C)[C@@H](O)[C@@H](C)[C@H](OC(C)=O)[C@@H]1C [Rifampicin, rifampicin]",0.25 to 4,4,4,–,–,–,–,–,2,–
